Values of other authors, collected in US10463642B2, “Methods of treating heart failure diseases using prodrugs of methyl hydrogen fumarate” (priority 2016, dated 2019).
Counter-ions that a name gives are not always drawn. Like-named read-outs stand apart in the source and are kept apart here.

Legend:
[1] = tested on: central nervous system (CNS) inflammation; conditions: murine EAE
[2] = tested on: central nervous system (CNS) inflammation; conditions: rat EAE
[3] = healthy subjects, steady state

Row | SMILES | CNS inflammation in EAE [1] | CNS inflammation in EAE [2] | dose comparable to 240 mg DMF (Tecfidera) by comparing plasma levels of MHF [3]
1 | COC(=O)/C=C/C(=O)OC [DMF, Dimethyl fumarate] | inhibit | inhibit | 
2 | CCN(CC)C(=O)COC(=O)/C=C/C(=O)OC [XP23829, (N,N-diethylcarbamoyl)methyl methyl (2E)but-2-ene-1,4-dioate] |  |  | 400 mg
